Data taken from patent US8487108B2, “Piperidinyl carbamate intermediates for the synthesis of aspartic protease inhibitors” (Vitae Pharmaceuticals, Inc., priority 2005, dated 2013).

biological target: T1, trypsin-activated recombinant human renin (Homo sapiens, UniProt P00797); test: Renin fluorescence assay (internally quenched peptide substrate); type: biochemical; settings: compounds I*
T1 sequence (P00797 67-406): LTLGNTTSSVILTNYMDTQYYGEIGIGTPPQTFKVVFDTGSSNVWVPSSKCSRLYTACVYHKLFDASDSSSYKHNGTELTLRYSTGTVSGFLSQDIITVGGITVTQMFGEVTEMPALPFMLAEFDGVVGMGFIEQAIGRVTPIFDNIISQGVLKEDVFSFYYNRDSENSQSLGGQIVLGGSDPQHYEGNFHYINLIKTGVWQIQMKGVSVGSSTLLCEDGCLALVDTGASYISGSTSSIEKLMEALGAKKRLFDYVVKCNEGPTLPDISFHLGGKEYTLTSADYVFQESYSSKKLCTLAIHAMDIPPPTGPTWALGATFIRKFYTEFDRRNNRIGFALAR
Summary of the method: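 Compounds (1 nM–10 μM final, DMSO) were mixed with internally quenched angiotensinogen-sequence substrate in pH 7.0 BES/NaCl/BSA buffer, then 0.2-2 nM trypsin-activated human renin added. Rate from the linear fluorescence increase (340 nm excitation, 495 nm emission) over 60-360 min at rt, compared with uninhibited control.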

`CC[C@@H](NC)[C@H](CC1CCCCC1)NC(=O)N1CCC[C@@H]([C@@H](OCCNC(=O)OC)c2cccc(Cl)c2)C1` [I*-130a, methyl 2-((R)-(3-chlorophenyl)((R)-1-((2S,3R)-1-cyclohexyl-3-(methylamino)pentan-2-ylcarbamoyl)piperidin-3-yl)methoxy)ethylcarbamate] and `CNC[C@H](CC1CCCCC1)NC(=O)N1CCC[C@@H]([C@@H](OCCNC(=O)OC)c2cccc(C(F)(F)F)c2)C1` [I*-136a, methyl 2-((R)-((R)-1-((S)-1-cyclohexyl-3-(methylamino)propan-2-ylcarbamoyl)piperidin-3-yl)(3-(trifluoromethyl)phenyl)methoxy)ethylcarbamate] cannot be ordered by IC50: under 20 nM for the first, under 10 nM for the second.

First: CNC[C@H](C[C@H]1CCC(=O)N(C)C1)NC(=O)N1CCC[C@@H]([C@@H](OCCNC(=O)OC)c2cccc(Cl)c2)C1 [I*-131a, methyl 2-((R)-(3-chlorophenyl)((R)-1-((S)-1-((R)-1-methyl-6-oxopiperidin-3-yl)-3-(methylamino)propan-2-ylcarbamoyl)piperidin-3-yl)methoxy)ethylcarbamate]
Second: CNC[C@H](CC1CCC(F)(F)CC1)NC(=O)N1CCC[C@@H]([C@@H](OCCNC(=O)OC)c2cccc(Cl)c2)C1 [I*-146a, methyl 2-((R)-(3-chlorophenyl)((R)-1-((S)-1-(4,4-difluorocyclohexyl)-3-(methylamino)propan-2-ylcarbamoyl)piperidin-3-yl)methoxy)ethylcarbamate]
The IC50 of the first is higher: over 50 nM for the first, under 1 nM for the second. The second is the more potent here.

`CNCC(C[C@H]1C[C@@H](C)O[C@@H](C)C1)NC(=O)N1CCC[C@@H]([C@@H](OCCNC(=O)OC)c2cccc(Cl)c2)C1` (stereo partly drawn) [I*-132a, methyl 2-((R)-(3-chlorophenyl)((R)-1-((S)-1-((2S,4r,6R)-2,6-dimethyl-tetrahydro-2H-pyran-4-yl)-3-(methylamino)propan-2-ylcarbamoyl)piperidin-3-yl)methoxy)ethylcarbamate] and `CNC[C@H](CC1CCOCC1)NC(=O)N1CCC[C@@H]([C@@H](OCCNC(=O)OC)c2cccc(C(F)(F)F)c2)C1` [I*-144a, methyl 2-((R)-((R)-1-((S)-1-(methylamino)-3-(tetrahydro-2H-pyran-4-yl)propan-2-ylcarbamoyl)piperidin-3-yl)(3-(trifluoromethyl)phenyl)methoxy)ethylcarbamate] cannot be ordered by IC50: over 50 nM for the first, over 50 nM for the second.

`CN[C@H](CNC(=O)N1CCC[C@@H]([C@@H](OCCNC(=O)OC)c2cc(Cl)ccc2C)C1)C[C@H]1CCCCOC1` [I*-133a, methyl 2-((R)-(5-chloro-2-methylphenyl)((R)-1-((S)-2-(methylamino)-3-((R)-oxepan-3-yl)propylcarbamoyl)piperidin-3-yl)methoxy)ethylcarbamate] and `CN[C@H](CNC(=O)N1CCC[C@@H]([C@@H](OCCNC(=O)OC)c2cc(F)cc(Cl)c2)C1)C[C@H]1CCCCOC1` [I*-143a, methyl 2-((R)-(3-chloro-5-fluorophenyl)((R)-1-((S)-2-(methylamino)-3-((R)-oxepan-3-yl)propylcarbamoyl)piperidin-3-yl)methoxy)ethylcarbamate] cannot be ordered by IC50: under 1 nM for the first, under 1 nM for the second.

Compared with `CNC[C@H](CCC1(OC)CCCC1)NC(=O)N1CCC[C@@H]([C@@H](OCCNC(=O)OC)c2cc(F)cc(F)c2)C1` [I*-134a, methyl 2-((R)-(3,5-difluorophenyl)((R)-1-((S)-4-(1-methoxycyclopentyl)-1-(methylamino)butan-2-ylcarbamoyl)piperidin-3-yl)methoxy)ethylcarbamate], `CNC[C@H](CC1CCC(F)(F)CC1)NC(=O)N1CCC[C@@H]([C@@H](OCCNC(=O)OC)c2cc(F)cc(F)c2)C1` [I*-147a, methyl 2-((R)-((R)-1-((S)-1-(4,4-difluorocyclohexyl)-3-(methylamino)propan-2-ylcarbamoyl)piperidin-3-yl)(3,5-difluorophenyl)methoxy)ethylcarbamate] is lower in IC50: over 50 nM for the first, under 1 nM for the second.

`CNC[C@H](CC1CCCCCC1)NC(=O)N1CCC[C@@H]([C@@H](OCCNC(=O)OC)c2cccc(Cl)c2F)C1` [I*-135a, methyl 2-((R)-(3-chloro-2-fluorophenyl)((R)-1-((S)-1-cycloheptyl-3-(methylamino)propan-2-ylcarbamoyl)piperidin-3-yl)methoxy)ethylcarbamate] and `CNC[C@H](CC1CCCOCC1)NC(=O)N1CCC[C@@H]([C@@H](OCCNC(=O)OC)c2cccc(Cl)c2F)C1` (stereo partly drawn) [I*-137a, methyl 2-((R)-(3-chloro-2-fluorophenyl)((3R)-1-((S)-1-(methylamino)-3-(oxepan-4-yl)propan-2-ylcarbamoyl)piperidin-3-yl)methoxy)ethylcarbamate] cannot be ordered by IC50: under 10 nM for the first, under 10 nM for the second.

`CNC[C@@H](NC(=O)N1CCC[C@@H]([C@@H](OCCNC(=O)OC)c2cccc(Cl)c2F)C1)[C@@H](O)C1CCCCC1` [I*-138a, methyl 2-((R)-(3-chloro-2-fluorophenyl)((R)-1-((1S,2R)-1-cyclohexyl-1-hydroxy-3-(methylamino)propan-2-ylcarbamoyl)piperidin-3-yl)methoxy)ethylcarbamate] and `CNC[C@H](C[C@H]1CCCCOC1)NC(=O)N1CCC[C@@H]([C@@H](OCCNC(=O)OC)c2cccc(Cl)c2F)C1` [I*-140a, methyl 2-((R)-(3-chloro-2-fluorophenyl)((R)-1-((S)-1-(methylamino)-3-((R)-oxepan-3-yl)propan-2-ylcarbamoyl)piperidin-3-yl)methoxy)ethylcarbamate] cannot be ordered by IC50: under 10 nM for the first, under 1 nM for the second.

`CNC[C@H](CC1CCCOC1)NC(=O)N1CCC[C@@H]([C@@](O)(CCCNC(=O)OC)c2cccc(Cl)c2F)C1` (stereo partly drawn) [I*-139a, methyl (S)-4-(3-chloro-2-fluorophenyl)-4-hydroxy-4-((3R)-1-((S)-1-(methylamino)-3-(tetrahydro-2H-pyran-3-yl)propan-2-ylcarbamoyl)piperidin-3-yl)butylcarbamate] and `CNC[C@H](C[C@H]1CCCOC1)NC(=O)N1CCC[C@@H]([C@@](O)(CCCNC(=O)OC)c2cccc(Cl)c2F)C1` [I*-142a, methyl (S)-4-(3-chloro-2-fluorophenyl)-4-hydroxy-4-((R)-1-((S)-1-(methylamino)-3-((R)-tetrahydro-2H-pyran-3-yl)propan-2-ylcarbamoyl)piperidin-3-yl)butylcarbamate] cannot be ordered by IC50: under 10 nM for the first, under 10 nM for the second.

`CNC[C@H](C[C@H]1CCCCOC1)NC(=O)N1CCC[C@@H]([C@@H](OCCNC(=O)OC)c2cc(F)cc(Cl)c2)C1` [I*-141a, methyl 2-((R)-(3-chloro-5-fluorophenyl)((R)-1-((S)-1-(methylamino)-3-((R)-oxepan-3-yl)propan-2-ylcarbamoyl)piperidin-3-yl)methoxy)ethylcarbamate] and `CNC[C@H](CC1CCC(F)(F)CC1)NC(=O)N1CCC[C@@H]([C@@H](OCCNC(=O)OC)c2cc(F)cc(Cl)c2)C1` [I*-153a, methyl 2-((R)-(3-chloro-5-fluorophenyl)((R)-1-((S)-1-(4,4-difluorocyclohexyl)-3-(methylamino)propan-2-ylcarbamoyl)piperidin-3-yl)methoxy)ethylcarbamate] cannot be ordered by IC50: under 1 nM for the first, under 1 nM for the second.

`CNC[C@H](CC12CC3CC(CC(C3)C1)C2)NC(=O)N1CCC[C@@H]([C@@H](OCCNC(=O)OC)c2cccc(F)c2)C1` [I*-145a, methyl 2-((R)-((R)-1-((S)-1-(1-adamantyl)-3-(methylamino)propan-2-ylcarbamoyl)piperidin-3-yl)(3-fluorophenyl)methoxy)ethylcarbamate] and `CNC[C@H](CC12CC3CC(CC(C3)C1)C2)NC(=O)N1CCC[C@@H]([C@@H](OCCNC(=O)OC)c2cc(F)ccc2F)C1` [I*-152a, methyl 2-((R)-((R)-1-((S)-1-(1-adamantyl)-3-(methylamino)propan-2-ylcarbamoyl)piperidin-3-yl)(2,5-difluorophenyl)methoxy)ethylcarbamate] cannot be ordered by IC50: under 10 nM for the first, under 10 nM for the second.

Going from `CNC[C@H](CC1CCOCC1)NC(=O)N1CCC[C@@H]([C@@H](OCCNC(=O)OC)c2ccc(F)c(Cl)c2F)C1` [I*-148a, methyl 2-((R)-(3-chloro-2,4-difluorophenyl)((R)-1-((S)-1-(methylamino)-3-(tetrahydro-2H-pyran-4-yl)propan-2-ylcarbamoyl)piperidin-3-yl)methoxy)ethylcarbamate] to `CNC[C@H](CC12CC3CC(CC1C3)C2)NC(=O)N1CCC[C@@H]([C@@H](OCCNC(=O)OC)c2cc(F)ccc2F)C1` [I*-149a, methyl 2-((R)-((R)-1-((S)-1-(3-noradamantyl)-3-(methylamino)propan-2-ylcarbamoyl)piperidin-3-yl)(2,5-difluorophenyl)methoxy)ethylcarbamate], the IC50 falls from over 50 nM to under 10 nM. The second is the more potent here.

`CCC[C@](OCCNC(=O)OC)(c1cccc(Cl)c1)[C@@H]1CCCN(C(=O)N[C@H](CNC)CC2CCCCC2)C1` [I*-150a, methyl 2-((R)-1-(3-chlorophenyl)-1-((R)-1-((S)-1-cyclohexyl-3-(methylamino)propan-2-ylcarbamoyl)piperidin-3-yl)butoxy)ethylcarbamate] and `CNC[C@H](CC12CC3CC(CC1C3)C2)NC(=O)N1CCC[C@@H]([C@@](C)(OCCNC(=O)OC)c2cccc(Cl)c2)C1` [I*-151a, methyl 2-((R)-1-(3-chlorophenyl)-1-((3R)-1-((S)-1-(3-noradamantyl)-3-(methylamino)propan-2-ylcarbamoyl)piperidin-3-yl)ethoxy)ethylcarbamate] cannot be ordered by IC50: under 50 nM for the first, under 1 nM for the second.
